Measurements reported in patent publication US20100285959A1, “HERBICIDAL MIXTURES” (priority 2006, published 2010).

Columns and labels:
velvetleaf (ABUTH) = assay: Test 1 field trial, preemergence; type: in vivo, Abutilon theophrasti; parameters: scale not given here; details: g a.i./ha: Atrazine 1680, S-Metolachlor 1870
Text: (§1) Corn seeds (hybrid ‘Pioneer 34N43’) were planted in mid spring season, 3.8 cm deep in a silt loam soil having 4.6% organic matter and a pH of 6. Plots were 10.7 m long by 1.5 m wide with rows spaced 76 cm apart. Seeds were spaced 18 cm apart within the rows. The field was managed using conventional tillage practices. […] Results are summarized in Table 1 and are the means of the three replicates. […] Colby's Equation (Colby, S. R. “Calculating Synergistic and Antagonistic Responses of Herbicide Combinations,” Weeds, 15(1), pp 20-22 (1967)) calculates the expected additive effect of herbicidal mixtures, and for two active ingredients is of the form:
(§2) Pa+b=Pa+Pb−(PaPb/100) • wherein Pa+b is the percentage effect of the mixture expected from additive contribution of the individual components, • Pa is the observed percentage effect of the first active ingredient at the same use rate as in the mixture, and • Pb is the observed percentage effect of the second active ingredient at the same use rate as in the mixture.

[1] = test system: Pennsylvania smartweed (POLPY); assay: Test 1 field trial, preemergence; type: in vivo, Polygonum pensylvanicum; details: g a.i./ha: Atrazine 1680, S-Metolachlor 1870
Text: as §1, §2

giant foxtail (SETFA) [2] = assay: Test 1 field trial, preemergence; type: in vivo, Setaria faberi; details: g a.i./ha: Atrazine 1680, S-Metolachlor 1870
Text: as §1, §2

giant foxtail (SETFA) [3] = assay: Test 5 field trial, postemergence; type: in vivo, Setaria faberi; details: atrazine 1120, glufosinate 470 or glyphosate 1120 g a.i./ha alone
corn (ZEAMD) = assay: Test 6 field trial, postemergence; type: in vivo, Zea mays ssp. indentata; details: 1120 g a.i./ha
redroot pigweed (AMARE) = assay: Test 6 field trial, postemergence; type: in vivo, Amaranthus retroflexus; details: 1120 g a.i./ha
[4] = test system: Pennsylvania smartweed (POLPY); assay: Test 6 field trial, postemergence; type: in vivo, Polygonum pensylvanicum; details: 1120 g a.i./ha
yellow foxtail (SETLU) = assay: Test 6 field trial, postemergence; type: in vivo, Setaria glauca; details: 1120 g a.i./ha
common ragweed (AMBEL) = assay: Test 8 field trial, preemergence; type: in vivo, Ambrosia artemisiifolia; details: g a.i./ha: Cpd 2 100, Atrazine 1680, S-Metolachlor 1870
Text: (§3) Corn seeds (hybrid ‘Pioneer 31G96’) were planted in mid spring season, 3.8 cm deep in a clay loam soil having 2% organic matter and a pH of 6.6. Plots were 6.1 m long by 3.0 m wide with rows spaced 76 cm apart. Seeds were spaced 15 cm apart within the rows. The field was managed using conventional tillage practices. […] A few of the weed species could not be evaluated at every timing. […] Results are the means of the three replicates.

[5] = test system: ivyleaf morningglory (IPOHE); assay: Test 8 field trial, preemergence; type: in vivo, Ipomoea hederacea; details: g a.i./ha: Cpd 2 100, Atrazine 1680, S-Metolachlor 1870
Text: as §3

giant foxtail (SETFA) [6] = assay: Test 8 field trial, preemergence; type: in vivo, Setaria faberi; details: g a.i./ha: Cpd 2 100, Atrazine 1680, S-Metolachlor 1870
Text: as §3

giant foxtail (SETFA) [7] = assay: Test 10 field trial, preemergence; type: in vivo, Setaria faberi; details: 28 DAA; g a.i./ha: Cpd 2 100, Atrazine 1680, S-Metolachlor 1870
Text: Corn seeds (hybrid ‘Pioneer 33P65 RR’) were planted in mid spring season, 2.5 cm deep in a silt loam soil. Plots were 9.1 m long by 3.0 m wide with rows spaced 76 cm apart. The field was managed using conventional tillage practices. […] Results are the means of the three replicates.

common blackjack (BIDPI) = assay: Test 11 field trial, preemergence; type: in vivo, Bidens pilosa; parameters: scale not given here; details: atrazine 1500 or metolachlor 2500 g a.i./ha alone
Text: (§4) Corn seeds (hybrid ‘Pioneer 3041’) were planted in mid spring season, 5 cm deep in a clay soil having 2.6% organic matter and a pH of 5.6. Plots were 8 m long by 1.5 m wide with rows spaced 80 cm apart. Seeds were spaced 15 cm apart within the rows. The field was managed using conventional tillage practices. […] Treatments consisted of Compound 2 or
(§5) Goosegrass was not evaluated 16 or 91 days after application.

[8] = test system: Ipomoea grandiflora (IPOGF); assay: Test 11 field trial, preemergence; type: in vivo
Text: as §4, §5

SMILES: CCNc1nc(Cl)nc(NC(C)C)n1 [Atrazine, atrazine, reference compound]
- ABUTH Obs (velvetleaf (ABUTH); 28 DAA): 75
- ABUTH Obs (velvetleaf (ABUTH); 56 DAA): 0
- POLPY Obs ([1]; 28 DAA): 93
- POLPY Obs ([1]; 56 DAA): 100
- SETFA Obs (giant foxtail (SETFA) [2]; 28 DAA): 93
- SETFA Obs (giant foxtail (SETFA) [2]; 56 DAA): 0
- SETFA Obs (giant foxtail (SETFA) [3]; 16 DAA): 0%
- SETFA Obs (giant foxtail (SETFA) [3]; 31 DAA): 0%
- ZEAMD Obs (corn (ZEAMD); 14 DAA): 0%
- ZEAMD Obs (corn (ZEAMD); 28 DAA): 0%
- AMARE Obs (redroot pigweed (AMARE); 14 DAA): 100%
- AMARE Obs (redroot pigweed (AMARE); 28 DAA): 100%
- POLPY Obs ([4]; 14 DAA): 73%
- POLPY Obs ([4]; 28 DAA): 83%
- SETLU Obs (yellow foxtail (SETLU); 14 DAA): 0%
- SETLU Obs (yellow foxtail (SETLU); 28 DAA): 0%
- AMBEL Obs (common ragweed (AMBEL); 19 DAA): 83%
- AMBEL Obs (common ragweed (AMBEL); 29 DAA): 98%
- AMBEL Obs (common ragweed (AMBEL); 56 DAA): 100%
- IPOHE Obs ([5]; 19 DAA): 45%
- IPOHE Obs ([5]; 29 DAA): 100%
- IPOHE Obs ([5]; 56 DAA): 95%
- SETFA Obs (giant foxtail (SETFA) [6]; 19 DAA): 60%
- SETFA Obs (giant foxtail (SETFA) [6]; 29 DAA): 88%
- SETFA Obs (giant foxtail (SETFA) [6]; 56 DAA): 67%
- SETFA Obs (giant foxtail (SETFA) [7]): 23%
- BIDPI Obs (common blackjack (BIDPI); 16 DAA): 100
- BIDPI Obs (common blackjack (BIDPI); 30 DAA): 97
- BIDPI Obs (common blackjack (BIDPI); 44 DAA): 80
- BIDPI Obs (common blackjack (BIDPI); 62 DAA): 70
- BIDPI Obs (common blackjack (BIDPI); 91 DAA): 40
- IPOGF Obs ([8]; 16 DAA, atrazine 1500 or metolachlor 2500 g a.i./ha alone): 97
- IPOGF Obs ([8]; 30 DAA, atrazine 1500 or metolachlor 2500 g a.i./ha alone): 97
- IPOGF Obs ([8]; 44 DAA, atrazine 1500 or metolachlor 2500 g a.i./ha alone): 70
- IPOGF Obs ([8]; 62 DAA, 1500 g a.i./ha, scale 0 to 100): 50
- IPOGF Obs ([8]; 91 DAA, 1500 g a.i./ha, scale 0 to 100): 40
